Data published in patent publication US9957264B2 (Merck Sharp & Dohme Corp., priority 2013, dated 2018).
pIC50: −log10 of the molar value.

What was measured:
[1] = molecular target: JAK1 (recombinant purified GST-tagged catalytic domain) (Homo sapiens (Human), UniProt P23458); experiment: Jak Biochemical HTRF Assay (JAK1); details: [ATP] 31.8 μM
In short: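 Read-out is the 665/615 nm time-resolved FRET ratio from Eu-pY20 antibody and streptavidin-Dylight 650 bound to phosphorylated biotin-peptide. Reactions ran 120 min at room temperature after ATP start. Inhibition normalized to untreated controls gave IC50 via 4-parameter fit.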

[2] = molecular target: JAK2 (recombinant purified GST-tagged catalytic domain) (Homo sapiens (Human), UniProt O60674); experiment: Jak Biochemical HTRF Assay (JAK2); details: [ATP] 8.5 μM
Chain of JAK2 (recombinant purified GST-tagged catalytic domain) (O60674 849-1124): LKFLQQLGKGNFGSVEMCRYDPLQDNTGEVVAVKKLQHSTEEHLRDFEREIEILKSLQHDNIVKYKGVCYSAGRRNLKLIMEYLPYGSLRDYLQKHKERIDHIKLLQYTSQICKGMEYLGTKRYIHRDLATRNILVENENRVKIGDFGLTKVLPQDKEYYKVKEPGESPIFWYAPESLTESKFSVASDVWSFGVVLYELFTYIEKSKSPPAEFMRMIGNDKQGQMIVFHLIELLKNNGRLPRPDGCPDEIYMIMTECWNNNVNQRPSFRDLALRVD

Chain of JAK1 (recombinant purified GST-tagged catalytic domain) (P23458 875-1153): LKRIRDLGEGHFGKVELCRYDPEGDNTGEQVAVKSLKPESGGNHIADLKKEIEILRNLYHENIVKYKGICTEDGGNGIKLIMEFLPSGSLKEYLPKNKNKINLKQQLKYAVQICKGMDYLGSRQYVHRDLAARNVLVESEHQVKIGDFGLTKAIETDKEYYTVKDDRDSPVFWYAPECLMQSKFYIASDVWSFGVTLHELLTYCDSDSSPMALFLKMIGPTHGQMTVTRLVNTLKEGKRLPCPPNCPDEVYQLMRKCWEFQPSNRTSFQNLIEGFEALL

Compound	pIC50 [1]	pIC50 [2]
N#CC[C@]1(n2nc(Nc3ccc(C(N)C(F)(F)F)cc3)c3c(=O)[nH]ccc32)CCCC[C@H]1F (single isomer, unassigned) [Example 5-177, {(1R,2R)-1-[3-({4-[(1S or 1R)-1-amino-2,2,2-trifluoroethyl]phenyl}amino)-4-oxo-4,5-dihydro-1H-pyrazolo[4,3-c]pyridin-1-yl]-2-fluorocyclohexyl} acetonitrile]	10.05	9.80
CN(C)S(=O)(=O)c1ccc(Nc2nn([C@]3(CC#N)COCC[C@@H]3F)c3cc[nH]c(=O)c23)cc1 (single isomer, unassigned) [Example 5-180, 4-({1-[(3R,4S or 3S,4R)-3-(cyanomethyl)-4-fluorotetrahydro-2H-pyran-3-yl]-4-oxo-4,5-dihydro-1H-pyrazolo[4,3-c]pyridin-3-yl}amino)-N,N-dimethylbenzene-sulfonamide]	9.08	8.74
CN(C)S(=O)(=O)c1ccc(Nc2nn([C@@]3(CC#N)COCC[C@H]3F)c3cc[nH]c(=O)c23)cc1 (single isomer, unassigned) [Example 5-181, 4-({1-[(3S,4R or 3S,4R)-3-(cyanomethyl)-4-fluorotetrahydro-2H-pyran-3-yl]-4-oxo-4,5-dihydro-1H-pyrazolo[4,3-c]pyridin-3-yl}amino)-N,N-dimethylbenzene-sulfonamide]	9.54	9.02
N#CC[C@@]1(n2nc(Nc3ccc(C(N)C(F)(F)F)cc3)c3c(=O)[nH]ccc32)CCCOC1 (single isomer, unassigned) [Example 5-187, {(3S)-3-[3-({4-[(1R or 1S)-1-amino-2,2,2-trifluoroethyl]phenyl}amino)-4-oxo-4,5-dihydro-1H-pyrazolo[4,3-c]pyridin-1-yl]tetrahydro-2H-pyran-3-yl}acetonitrile]	9.72	9.24
N#CC[C@@]1(n2nc(Nc3ccc(C(N)C(F)(F)F)cc3)c3c(=O)[nH]ccc32)CCCOC1 (single isomer, unassigned) [Example 5-188, {(3S)-3-[3-({4-[(1S or 1R)-1-amino-2,2,2-trifluoroethyl]phenyl}amino)-4-oxo-4,5-dihydro-1H-pyrazolo[4,3-c]pyridin-1-yl]tetrahydro-2H-pyran-3-yl}acetonitrile]	9.96	9.47
CC(C)(C)NC(c1ccc(Nc2nn([C@]3(CC#N)CCCOC3)c3cc[nH]c(=O)c23)cc1)C(F)(F)F (single isomer, unassigned) [Example 5-189, {(3S)-3-[3-({4-[(1R or 1S)-1-(tert-butylamino)-2,2,2-trifluoroethyl]phenyl}amino)-4-oxo-4,5-dihydro-1H-pyrazolo [4,3-c]pyridin-1-yl]tetrahydro-2H-pyran-3-yl}acetonitrile]	9.85	9.77
CC(C)(C)NC(c1ccc(Nc2nn([C@]3(CC#N)CCCOC3)c3cc[nH]c(=O)c23)cc1)C(F)(F)F (single isomer, unassigned) [Example 5-190, {(3S)-3-[3-({4-[(1S or 1R)-1-(tert-butylamino)-2,2,2-trifluoroethyl]phenyl}amino)-4-oxo-4,5-dihydro-1H-pyrazolo [4,3-c]pyridin-1-yl]tetrahydro-2H-pyran-3-yl}acetonitrile]	9.68	9.42
CC(C)(C)NC(c1ccc(Nc2nn([C@]3(CC#N)CC[C@@H](C(=O)OC(C)(C)C)OC3)c3cc[nH]c(=O)c23)cc1)C(F)(F)F (single isomer, unassigned) [Example 5-194, (2S,5S)-tert-butyl 5-(3-((4-((R or S)-1-(tert-butylamino)-2,2,2-trifluoroethyl)phenyl)amino)-4-oxo-4,5-dihydro-1H-pyrazolo [4,3-c]pyridin-1-yl)-5-(cyanomethyl)tetrahydro-2H-pyran-2-carboxylate]	9.28	9.09
CC(C)(C)NC(c1ccc(Nc2nn([C@]3(CC#N)CC[C@@H](C(=O)OC(C)(C)C)OC3)c3cc[nH]c(=O)c23)cc1)C(F)(F)F (single isomer, unassigned) [Example 5-195, (2S,5S)-tert-butyl 5-(3-((4-((R or S)-1-(tert-butylamino)-2,2,2-trifluoroethyl)phenyl)amino)-4-oxo-4,5-dihydro-1H-pyrazolo [4,3-c]pyridin-1-yl)-5-(cyanomethyl)tetrahydro-2H-pyran-2-carboxylate]	9.25	9.17
N#CC[C@@]1(n2nc(Nc3ccc(C(N4CCCC4)C(F)(F)F)cc3)c3c(=O)[nH]ccc32)CCCOC1 (single isomer, unassigned) [Example 5-198, {(3S)-3-[4-oxo-3-({4-[(1R or 1S)-2,2,2-trifluoro-1-pyrrolidin-1-ylethyl]phenyl}amino)-4,5-dihydro-1H-pyrazolo [4,3-c]pyridin-1-yl]tetrahydro-2H-pyran-3-yl}acetonitrile]	9.80	9.41
N#CC[C@@]1(n2nc(Nc3ccc(C(N4CCCC4)C(F)(F)F)cc3)c3c(=O)[nH]ccc32)CCCOC1 (single isomer, unassigned) [Example 5-199, {(3S)-3-[4-oxo-3-({4-[(1S or 1R)-2,2,2-trifluoro-1-pyrrolidin-1-ylethyl]phenyl}amino)-4,5-dihydro-1H-pyrazolo[4,3-c]pyridin-1-yl]tetrahydro-2H-pyran-3-yl}acetonitrile]	9.82	9.48
CC(c1ccc(Nc2nn([C@]3(CC#N)CCCOC3)c3cc[nH]c(=O)c23)cc1)N1CCCC1 (single isomer, unassigned) [Example 5-200, {(3S)-3-[4-oxo-3-({4-[(1S or 1R)-1-pyrrolidin-1-ylethyl]phenyl}amino)-4,5-dihydro-1H-pyrazolo[4,3-c]pyridin-1-yl]tetrahydro-2H-pyran-3-yl}acetonitrile]	8.94	9.28
CC(c1ccc(Nc2nn([C@]3(CC#N)CCCOC3)c3cc[nH]c(=O)c23)cc1)N1CCCC1 (single isomer, unassigned) [Example 5-201, {(3S)-3-[4-oxo-3-({4-[(1R or 1S)-1-pyrrolidin-1-ylethyl]phenyl}amino)-4,5-dihydro-1H-pyrazolo[4,3-c]pyridin-1-yl]tetrahydro-2H-pyran-3-yl}acetonitrile]	9.31	9.57
CC(C)NC(c1ccc(Nc2nn([C@]3(CC#N)CCCOC3)c3cc[nH]c(=O)c23)cc1)C(F)(F)F (single isomer, unassigned) [Example 5-205, [(3S)-3-{4-oxo-3-[(4-{(1R or 1S)-2,2,2-trifluoro-1-[(1-methylethyl)amino]ethyl}phenyl)amino]-4,5-dihydro-1H-pyrazolo[4,3-c]pyridin-1-yl}tetrahydro-2H-pyran-3-yl]acetonitrile]	9.77	9.70
CC(C)NC(c1ccc(Nc2nn([C@]3(CC#N)CCCOC3)c3cc[nH]c(=O)c23)cc1)C(F)(F)F (single isomer, unassigned) [Example 5-206, [(3S)-3-{4-oxo-3-[(4-{(1S or 1R)-2,2,2-trifluoro-1-[(1-methylethyl)amino]ethyl}phenyl)amino]-4,5-dihydro-1H-pyrazolo [4,3-c]pyridin-1-yl}tetrahydro-2H-pyran-3-yl]acetonitrile]	9.89	9.80
CCNC(c1ccc(Nc2nn([C@]3(CC#N)CC[C@@H](C(=O)OC(C)(C)C)OC3)c3cc[nH]c(=O)c23)cc1)C(F)(F)F (single isomer, unassigned) [Example 5-207, (2S,5S)-tert-butyl 5-(cyanomethyl)-5-(3-((4-((R or S)-1-(ethylamino)-2,2,2-trifluoroethyl)phenyl)amino)-4-oxo-4,5-dihydro-1H-pyrazolo[4,3-c]pyridin-1-yl)tetrahydro-2H-pyran-2-carboxylate]	9.72	9.59
CCNC(c1ccc(Nc2nn([C@]3(CC#N)CC[C@@H](C(=O)OC(C)(C)C)OC3)c3cc[nH]c(=O)c23)cc1)C(F)(F)F (single isomer, unassigned) [Example 5-208, (2S,5S)-tert-butyl 5-(cyanomethyl)-5-(3-((4-((R or S)-1-(ethylamino)-2,2,2-trifluoroethyl)phenyl)amino)-4-oxo-4,5-dihydro-1H-pyrazolo[4,3-c]pyridin-1-yl)tetrahydro-2H-pyran-2-carboxylate]	9.62	9.51
CC(C)NC(c1ccc(Nc2nn([C@]3(CC#N)CC[C@@H](C(=O)OC(C)(C)C)OC3)c3cc[nH]c(=O)c23)cc1)C(F)(F)F (single isomer, unassigned) [Example 5-209, (2S,5S)-tert-butyl 5-(cyanomethyl)-5-(4-oxo-3-((4-((R or S)-2,2,2-trifluoro-1-(isopropylamino)ethyl)phenyl)amino)-4,5-dihydro-1H-pyrazolo [4,3-c]pyridin-1-yl)tetrahydro-2H-pyran-2-carboxylate]	9.49	9.46
CC(C)NC(c1ccc(Nc2nn([C@]3(CC#N)CC[C@@H](C(=O)OC(C)(C)C)OC3)c3cc[nH]c(=O)c23)cc1)C(F)(F)F (single isomer, unassigned) [Example 5-210, (2S,5S)-tert-butyl 5-(cyanomethyl)-5-(4-oxo-3-((4-((R or S)-2,2,2-trifluoro-1-(isopropylamino)ethyl)phenyl)amino)-4,5-dihydro-1H-pyrazolo[4,3-c]pyridin-1-yl)tetrahydro-2H-pyran-2-carboxylate]	9.39	9.29
CC(c1ccc(Nc2nn([C@]3(CC#N)CC[C@@H](C(=O)OC(C)(C)C)OC3)c3cc[nH]c(=O)c23)cc1)N1CCCC1 (single isomer, unassigned) [Example 5-211, (2S,5S)-tert-butyl 5-(cyanomethyl)-5-(4-oxo-3-((4-((S or R)-1-(pyrrolidin-1-yl)ethyl)phenyl)amino)-4,5-dihydro-1H-pyrazolo [4,3-c]pyridin-1-yl) tetrahydro-2H-pyran-2-carboxylate]	9.72	9.92
